pIC50: −log10 of the molar value. Calls of active or inactive are those of the source. The calls are words filed in the database; no cut-off is given here.
Tests used:
Plasmodium berghei [1] = test: Antimalarial activity against Plasmodium berghei GFP ANKA infected in NMRI mice (Mus musculus) assessed as reduction in parasitaemia at 30 mg/kg, perorally administered as single dose 24 hrs post infection for 1 day measured 72 hrs post infection; type: functional; design: scale not given: the % may be the effect or the level left; conditions: route oral
Plasmodium berghei [2] = test: Antimalarial activity against Plasmodium berghei GFP ANKA infected in NMRI mice (Mus musculus) assessed as reduction in parasitaemia at 10 mg/kg, perorally administered as single dose 24 hrs post infection for 1 day measured 72 hrs post infection; type: functional; design: scale not given: the % may be the effect or the level left; conditions: route oral
Plasmodium berghei [3] = test: Antimalarial activity against Plasmodium berghei GFP ANKA infected in NMRI mice (Mus musculus) assessed as survival at 10 mg/kg, perorally administered through 7% Tween80/3% Ethanol formulation 24 hrs post infection for 3 days measured 96 hrs post infection; type: functional; conditions: route oral
Plasmodium berghei [4] = test: Antimalarial activity against Plasmodium berghei GFP ANKA infected in NMRI mice (Mus musculus) assessed as survival at 30 mg/kg, perorally administered as single dose 24 hrs post infection for 1 day measured 72 hrs post infection; type: functional; conditions: route oral
Plasmodium falciparum [5] = test: Antimalarial activity against Plasmodium falciparum 3D7 assessed as parasite growth inhibition at 8 nM after 6 hrs by [3H]hypoxanthin incorporation assay; type: functional
Plasmodium berghei [6] = test: Antimalarial activity against Plasmodium berghei GFP ANKA infected in NMRI mice (Mus musculus) assessed as survival at 10 mg/kg, perorally administered as single dose as single dose 24 hrs post infection for 1 day measured 72 hrs post infection; type: functional; conditions: route oral
Plasmodium berghei [7] = test: Antimalarial activity against Plasmodium berghei GFP ANKA infected in NMRI mice (Mus musculus) assessed as reduction in parasitaemia at 10 mg/kg, perorally administered through 7% Tween80/3% Ethanol formulation 24 hrs post infection for 3 days measured 96 hrs post infection; type: functional; design: scale not given: the % may be the effect or the level left; conditions: route oral
Plasmodium berghei [8] = test: Antimalarial activity against Plasmodium berghei GFP ANKA infected in NMRI mice (Mus musculus) assessed as survival at 100 mg/kg, perorally administered as single dose 24 hrs post infection for 1 day measured 72 hrs post infection; type: functional; conditions: route oral
Plasmodium falciparum [9] = test: Antimalarial activity against NITD609-resistant Plasmodium falciparum Dd2 Clone1 bearing P-type ATPase4 I398F and P990R mutations after 72 hrs by SYBR green based fluorescence assay; type: functional, organism-based; conditions: Dd2, 72 h
Plasmodium falciparum [10] = test: Inhibition of protein synthesis in NITD609-resistant Plasmodium falciparum Dd2 Clone1 within 1 hrs by [35S]Met/Cys incorporation assay; type: functional
Plasmodium falciparum [11] = test: Antimalarial activity against Plasmodium falciparum Dd2 after 72 hrs by SYBR green based fluorescence assay; type: functional, organism-based; conditions: Dd2, 72 h
Plasmodium falciparum [12] = test: Inhibition of protein synthesis in NITD609-resistant Plasmodium falciparum Dd2 Clone3 within 1 hrs by [35S]Met/Cys incorporation assay; type: functional
Plasmodium falciparum [13] = test: Antimalarial activity against Plasmodium falciparum assessed as […] by SYBR green based fluorescence assay; type: functional, organism-based; conditions: for pIC50: Plasmodium falciparum
Plasmodium falciparum [14] = type: functional, organism-based; conditions: Dd2, 72 h
Plasmodium falciparum [15] = test: Antimalarial activity against NITD609-resistant Plasmodium falciparum Dd2 Clone2 bearing P-type ATPase4 T418N and P990R mutations after 72 hrs by SYBR green based fluorescence assay; type: functional, organism-based; conditions: Dd2, 72 h
Plasmodium falciparum [16] = test: microbe, parasite or virus in culture; conditions: Dd2, 72 h
Description: Antimalarial activity against Plasmodium falciparum Dd2 containing attB site inserted in parasite genome and expressing parental ATP4 after 72 hrs by SYBR green based fluorescence assay

Plasmodium falciparum [17] = test: microbe, parasite or virus in culture; conditions: Dd2, 72 h; remark: listed apart in the source
Description: Antimalarial activity against Plasmodium falciparum Dd2 containing attB site inserted in parasite genome and using EF1-alpha promoter driven expressing ATP4 D1247Y mutant after 72 hrs by SYBR green based fluorescence assay

Plasmodium falciparum [18] = test: microbe, parasite or virus in culture; conditions: Dd2, 72 h; remark: listed apart in the source
Description: Antimalarial activity against Plasmodium falciparum Dd2 containing attB site inserted in parasite genome and using EF1-alpha promoter driven expressing wild type ATP4 after 72 hrs by SYBR green based fluorescence assay

Plasmodium falciparum [19] = test: microbe, parasite or virus in culture; conditions: Dd2, 72 h; remark: listed apart in the source
Description: Antimalarial activity against Plasmodium falciparum Dd2 containing attB site inserted in parasite genome and using CAM promoter driven expressing ATP4 D1247Y mutant after 72 hrs by SYBR green based fluorescence assay

Plasmodium falciparum [20] = test: microbe, parasite or virus in culture; conditions: Dd2, 72 h; remark: listed apart in the source
Description: Antimalarial activity against Plasmodium falciparum Dd2 containing attB site inserted in parasite genome and using CAM promoter driven expressing ATP4 I398F/P990R mutant after 72 hrs by SYBR green based fluorescence assay

Plasmodium falciparum [21] = test: microbe, parasite or virus in culture; conditions: Dd2, 72 h; remark: listed apart in the source
Description: Antimalarial activity against Plasmodium falciparum Dd2 containing attB site inserted in parasite genome and using EF1-alpha promoter driven expressing ATP4 I398F/P990R mutant after 72 hrs by SYBR green based fluorescence assay

Plasmodium berghei [22] = test: Antimalarial activity against Plasmodium berghei GFP ANKA infected in NMRI mice (Mus musculus) assessed as reduction in parasitaemia dosed in ETPGS formulation 1 day post infection measured 72 hrs post infection; type: functional
Plasmodium berghei [23] = test: Antimalarial activity against Plasmodium berghei GFP ANKA infected in NMRI mice (Mus musculus) assessed as survival at 30 mg/kg, perorally administered through 7% Tween80/3% Ethanol formulation 24 hrs post infection for 3 days measured 96 hrs post infection; type: functional; conditions: route oral
Plasmodium berghei [24] = test: Antimalarial activity against Plasmodium berghei GFP ANKA infected in NMRI mice (Mus musculus) assessed as reduction in parasitaemia at 30 mg/kg, perorally administered through 7% Tween80/3% Ethanol formulation 24 hrs post infection for 3 days measured 96 hrs post infection; type: functional; design: scale not given: the % may be the effect or the level left; conditions: route oral
Plasmodium berghei [25] = test: Antimalarial activity against Plasmodium berghei GFP ANKA infected in NMRI mice (Mus musculus) assessed as reduction in parasitaemia dosed in 7% Tween80/3% ethanol formulation 1 day post infection measured 72 hrs post infection; type: functional
Plasmodium berghei [26] = test: Antimalarial activity against Plasmodium berghei GFP ANKA infected in NMRI mice (Mus musculus) assessed as reduction in parasitaemia at 100 mg/kg, perorally administered as single dose 24 hrs post infection for 1 day measured 72 hrs post infection; type: functional; design: scale not given: the % may be the effect or the level left; conditions: route oral

Structure (SMILES): CO[C@H]1O[C@@H]2O[C@@]3(C)CC[C@H]4[C@H](C)CC[C@@H]([C@H]1C)[C@@]24OO3
- Activity (Plasmodium berghei [1]): 97%
- Activity (Plasmodium berghei [2]): 81%
- Survival (Plasmodium berghei [3]): 13.2 days
- Survival (Plasmodium berghei [4]): 6.9 days
- inhibition at 0.008 µM (Plasmodium falciparum [5]): > 90%
- mean survival time at 10 mg/kg (Plasmodium berghei [6]): 6.2 days
- Activity (Plasmodium berghei [7]): 99.7%
- Survival (Plasmodium berghei [8]): >7.6 days

Structure (SMILES): COc1ccc(C[C@H]2NC[C@H](O)[C@H]2OC(C)=O)cc1 [ANISOMYCIN]
- pIC50 (Plasmodium falciparum [9]): 8.24
- inhibition (Plasmodium falciparum [10]): Active
- pIC50 (Plasmodium falciparum [11]): 8.04
- inhibition (Plasmodium falciparum [12]): Active
- pIC50 (Plasmodium falciparum [13]): 7.60
- pIC50 (Plasmodium falciparum [14]; read-out: IC50): 8.19
- pIC50 (Plasmodium falciparum [15]): 8.04

Structure (SMILES): C[C@@H]1CC[C@H]2[C@@H](C)C(=O)O[C@@H]3O[C@@]4(C)CC[C@@H]1[C@]32OO4 [ARTEMISININ]
- pIC50 (Plasmodium falciparum [9]): 7.89
- pIC50 (Plasmodium falciparum [16]): 7.81
- pIC50 (Plasmodium falciparum [17]): 7.70
- pIC50 (Plasmodium falciparum [18]): 7.77
- pIC50 (Plasmodium falciparum [19]): 7.79
- pIC50 (Plasmodium falciparum [20]): 7.75
- inhibition (INH) (Plasmodium falciparum [13]): <25%
- pIC50 (Plasmodium falciparum [13]): 7.82
- pIC50 (Plasmodium falciparum [14]; read-out: IC50): 7.80
- pIC50 (Plasmodium falciparum [15]): 7.74
- pIC50 (Plasmodium falciparum [21]): 7.76

Structure (SMILES): C[C@H]1[C@H](OC(=O)CCC(=O)O)O[C@@H]2O[C@@]3(C)CC[C@H]4[C@H](C)CC[C@@H]1[C@@]24OO3 [ARTESUNATE]
- ED50 (Plasmodium berghei [22]): 6.2 mg/kg
- Survival (Plasmodium berghei [23]): 7.2 days
- Activity (Plasmodium berghei [24]): 98%
- ED99 (Plasmodium berghei [25]): 135 mg/kg
- Activity (Plasmodium berghei [1]): 89%
- Activity (Plasmodium berghei [2]): 70%
- Survival (Plasmodium berghei [3]): 6.5 days
- mean survival time at 10 mg/kg (Plasmodium berghei [6]): 7.3 days
- Activity (Plasmodium berghei [7]): 92%
- Survival (Plasmodium berghei [8]): 6.7 days

Structure (SMILES): O=C1C(O)=C([C@H]2CC[C@H](c3ccc(Cl)cc3)CC2)C(=O)c2ccccc21 [ATOVAQUONE]
- pIC50 (Plasmodium falciparum [9]): 9.22
- pIC50 (Plasmodium falciparum [11]): 9.10
- pIC50 (Plasmodium falciparum [14]; read-out: IC50): 9.22
- pIC50 (Plasmodium falciparum [15]): 9.10

Structure (SMILES): CCN(CC)CCCC(C)Nc1ccnc2cc(Cl)ccc12 (configuration not stated) [CHLOROQUINE]
- ED50 (Plasmodium berghei [22]): 1.9 mg/kg
- Survival (Plasmodium berghei [23]): 18.8 days
- Activity (Plasmodium berghei [24]): 98.6%
- ED99 (Plasmodium berghei [25]): 8.4 mg/kg
- Activity (Plasmodium berghei [26]): >99.9%
- Survival (Plasmodium berghei [3]): 15.4 days
- Survival (Plasmodium berghei [4]): 8.7 days
- mean survival time at 10 mg/kg (Plasmodium berghei [6]): 8 days
- Survival (Plasmodium berghei [8]): 12 days

Structure (SMILES): C/C=C/[C@H]1O[C@@](O)([C@@H](C)[C@H](O)[C@H](C)[C@H]2OC(=O)/C(OC)=C/C(C)=C/[C@@H](C)[C@@H](O)[C@@H](CC)[C@@H](O)[C@H](C)C/C(C)=C/C=C/[C@@H]2OC)C[C@@H](O[C@H]2C[C@@H](O)[C@H](OC(N)=O)[C@@H](C)O2)[C@@H]1C [CONCANAMYCIN A]
- pIC50 (Plasmodium falciparum [9]): 8.15
- pIC50 (Plasmodium falciparum [11]): 8.35
- pIC50 (Plasmodium falciparum [14]; read-out: IC50): 8.15
- pIC50 (Plasmodium falciparum [15]): 8.10

Structure (SMILES): C[C@@H]1C[C@@H]([C@H](O)CC2CC(=O)NC(=O)C2)C(=O)[C@@H](C)C1 [CYCLOHEXIMIDE]
- pIC50 (Plasmodium falciparum [9]): 6.54
- inhibition (Plasmodium falciparum [10]): Active
- pIC50 (Plasmodium falciparum [11]): 6.49
- inhibition (Plasmodium falciparum [12]): Active
- pIC50 (Plasmodium falciparum [13]): 6.70
- pIC50 (Plasmodium falciparum [14]): 6.52
- pIC50 (Plasmodium falciparum [15]): 6.51

Structure (SMILES): CC(=O)C1=C(O)[C@@H]2[C@H]3c4c[nH]c5cccc(c45)C[C@H]3C(C)(C)N2C1=O [CYCLOPIAZONIC ACID]
- pIC50 (Plasmodium falciparum [9]): 5.46
- pIC50 (Plasmodium falciparum [11]): 5.47
- pIC50 (Plasmodium falciparum [14]; read-out: IC50): 5.49
- pIC50 (Plasmodium falciparum [15]): 5.38

Structure (SMILES): OC(c1cc(C(F)(F)F)nc2c(C(F)(F)F)cccc12)C1CCCCN1 (configuration not stated) [MEFLOQUINE]
- ED50 (Plasmodium berghei [22]): 4.2 mg/kg
- Survival (Plasmodium berghei [23]): 14 days
- pIC50 (Plasmodium falciparum [9]): 8.17
- Activity (Plasmodium berghei [24]): 99.9%
- pIC50 (Plasmodium falciparum [17]): 7.90
- ED99 (Plasmodium berghei [25]): 8.6 mg/kg
- Activity (Plasmodium berghei [1]): 98%
- Activity (Plasmodium berghei [26]): 89%
- Activity (Plasmodium berghei [2]): 95%
- pIC50 (Plasmodium falciparum [19]): 7.96
- pIC50 (Plasmodium falciparum [20]): 7.89
- Survival (Plasmodium berghei [3]): 13.8 days
- inhibition (INH) (Plasmodium falciparum [13]): <25%
- Survival (Plasmodium berghei [4]): 18.2 days
- mean survival time at 10 mg/kg (Plasmodium berghei [6]): 15.2 days
- pIC50 (Plasmodium falciparum [14]; read-out: IC50): 8.10
- pIC50 (Plasmodium falciparum [15]): 8.15
- Activity (Plasmodium berghei [7]): 99.9%
- Survival (Plasmodium berghei [8]): 28 days
- pIC50 (Plasmodium falciparum [21]): 7.85

Structure (SMILES): CCc1nc(N)nc(N)c1-c1ccc(Cl)cc1 [PYRIMETHAMINE]
- pIC50 (Plasmodium falciparum [9]): < 4.70
- pIC50 (Plasmodium falciparum [11]): < 4.70
- pIC50 (Plasmodium falciparum [14]; read-out: IC50): < 4.70
- pIC50 (Plasmodium falciparum [15]): < 4.70

Structure (SMILES): C/C=C(/C)C(=O)O[C@H]1C(C)=C2[C@H]([C@@H]1OC(=O)CCCCCCC)[C@@](C)(OC(C)=O)C[C@H](OC(=O)CCC)[C@@]1(O)[C@H]2OC(=O)[C@@]1(C)O [THAPSIGARGIN]
- pIC50 (Plasmodium falciparum [9]): 6.09
- pIC50 (Plasmodium falciparum [11]): 6.04
- pIC50 (Plasmodium falciparum [14]; read-out: IC50): 5.98
- pIC50 (Plasmodium falciparum [15]): 5.96
